Measurements from patent US11484032B2, “Compositions for inhibition of insect sensing” (Vanderbilt University, priority 2011, dated 2022).
Read-outs that look alike come from different tables or passages of the source.

Key:
Orco 28 + Orco [1] = biological target: T1, Orco 28 + Orco (Anopheles gambiae, UniProt Q7QCC7); test: Orco 28 + Orco: agonist / antagonist / potentiator screen (Table 1); type: cell-based; details: for Orco 28 + Orco Antagonist % Reduction: antagonist mode; for Orco 28 + Orco Potentiator % increase: potentiator mode
T1 construct: expressed in transfected cells
T1 sequence (Q7QCC7 1-478): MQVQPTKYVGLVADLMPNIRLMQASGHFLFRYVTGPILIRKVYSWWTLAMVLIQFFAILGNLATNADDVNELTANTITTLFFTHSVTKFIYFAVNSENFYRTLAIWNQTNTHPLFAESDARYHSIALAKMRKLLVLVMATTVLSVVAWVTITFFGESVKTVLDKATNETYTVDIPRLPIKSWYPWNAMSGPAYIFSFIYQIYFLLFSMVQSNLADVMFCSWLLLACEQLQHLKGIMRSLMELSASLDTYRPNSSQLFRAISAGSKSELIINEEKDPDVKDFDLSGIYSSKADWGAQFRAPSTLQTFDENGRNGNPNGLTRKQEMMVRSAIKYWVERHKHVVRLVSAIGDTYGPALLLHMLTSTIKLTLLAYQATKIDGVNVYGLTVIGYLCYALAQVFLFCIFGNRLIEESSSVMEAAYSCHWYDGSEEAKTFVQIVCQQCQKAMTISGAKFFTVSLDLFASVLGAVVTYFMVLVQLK
Protocol: (§1) The activity against insect odorant sensory receptors was evaluated for various disclosed compounds, and the data were collected in Table 1.

AgORco+AgOR10 = biological target: T2, AgORco+AgOR10 (Anopheles gambiae, UniProt Q7QCC7); test: Fluo-4 Ca2+ imaging, HEK293 cells expressing Orco+AgOR10; type: cell-based; design: Orco 10 + Orco Angatonist % Reduction / Orco 10 + Orco Agonist % of control: concentration or dose not given beside the values; details: for Orco 10 + Orco Potentiator % increase: potentiator mode
T2 construct: expressed in transfected cells
T2 sequence (Q7QCC7 1-478): T1 sequence (Q7QCC7 1-478)
Description: (§2) For transient transfections, ORs were cloned into pCl (Promega) and transfected into Flp-In™ T-REx™293 cell lines (Invitrogen) with Fu GENE6 (Roche). For the creation of stable cell lines, a cell culture expression vector capable of expressing Orco in conjunction with a conventional OR, pcDNA5/FRT/TO (Invitrogen) was modified to create two individual expression cassettes each under the control of a separate CMV/Tet02 promoter and a BGH poly-adenylation signal. Cells (as above) were transfected with the modified pcDNA5 plasmid along with POG44 (a Flp recombinase expression plasmid) to facilitate site-specific recombination. Stable cell lines were selected using Hygromycin B (Invitrogen). Cells were maintained in DMEM (Invitrogen) supplemented with 10% Tetracycline-free FBS (HyClone) and 15 ng/ml Blasticidin. For fluorometric Ca2+ measurements, stable lines expressing ORs of interest were seeded at 20,000 cells/well in black wall, poly-lysine coated 384-well cell culture plates (Greiner) and treated with […] tetracycline (Sigma) overnight to induce OR expression. Cells were dye-loaded with 1.8 uM Fluo-4 AM (Molecular Probes), 2.5 mM Probenecid (Molecular Probes) in assay buffer (20 mM HEPES, IX HBSS) for 45 minutes at 37° C. in 5% CO2 prior to each assay. Ca^2+ mobilization was assayed in an FDSS6000 (Hamamatsu). Baseline readings were taken for 20 s before automated addition of compound previously diluted in DMSO and assay buffer. Ratios were described as Maximum/Minimum response and each response was normalized to the maximum responder.
As part of an ongoing, cell based calcium imaging screen for novel small-molecule modulators of AgORs that might disrupt olfactory-driven mosquito behaviors (Rinker et al manuscript in preparation), the inventors identified a number of compounds that activated AgOR10+AgORco-expressing human embryonic kidney (HEK293) cells. One of these compounds, (FIG. 3 A) denoted here as VUAA1, elicited activity consistent with allosteric agonism and was pursued for its novel properties. The identity of VUAA1 was verified using high-resolution mass spectrometry (HRMS) as well as ^1H and ^13C NMR. […] As AgORco was the common element among these functional responses, the inventors postulated that VUAA1 was a potential AgORco agonist.

Orco 28 + Orco [2] = biological target: T1, Orco 28 + Orco; test: Ca2+ imaging, cells expressing Orco + OR28 (Table 1 head "Orco 28 + Orco"); type: cell-based; details: for Orco 28 + Orco Antagonist % Reduction: antagonist mode
Protocol: as §1

AgOrco+AgOR65 = biological target: T3, AgOrco+AgOR65 (Anopheles gambiae, UniProt Q7QCC7); test: Ca2+ imaging, HEK cells expressing AgOrco+AgOR65; type: cell-based
T3 construct: expressed in transfected cells
T3 sequence (Q7QCC7 1-478): T1 sequence (Q7QCC7 1-478)
Description: as §2
For VUAA0, a single methyl from the para position of the aniline ring (compound VUAA0, FIG. 44) in the VUAA1 structure was removed. […] In VUAA0.5, unsaturation was introduced at the para position of the aniline ring (VUAA0.5, FIG. 44). […] In VUAA2, the ethyl group of the aniline ring in VUAA1 was replaced with an isopropyl group (VUAA2, FIG. 44).

AgORco+AgOR48 = biological target: T4, AgORco+AgOR48 (Anopheles gambiae, UniProt Q7QCC7); test: Ca2+ imaging, HEK cells expressing AgORco+AgOR48; type: cell-based; details: Orco + 48; for EC50: read-out: Orco + 48 Agonist EC50; for Orco + 48 Agonist % value Of VUAA1: relative to VUAA1
T4 construct: expressed in transfected cells
T4 sequence (Q7QCC7 1-478): T1 sequence (Q7QCC7 1-478)
Description: as §2
The ability of VUAA1 and its analogs to agonize representative ORco proteins from dipteran (Anopheles gambiae, AgORco), lepidopteran (Heliothis virescens, HvORco) and hymenopteran (Harpegnathos saltator, HsORco) orders was tested. […] Furthermore, the hierarchy of VUAA series potency was the same, irrespective of whether AgORco was co-expressed with AgOR65 or AgOR48 tuning ORs (FIG. 45). Without wishing to be bound by a particular theory, odorant ligands are thought to activate the complex via interaction with the tuning ORx and thereby affect ORco/ORx channel properties. […] These findings indicate VUAA-class OR co-modulators are viable compounds for further development as broad-spectrum insect control strategies, and VUAA4 can provide an advance in the pharmacological profile of VUAA-based compounds.

Orco (AgORco) = biological target: T5, Orco (AgORco) (Anopheles gambiae, UniProt Q7QCC7); test: Fluo-4 Ca2+ imaging, HEK293 cells expressing Orco alone; type: cell-based; details: for Emax: HEK293, read-out: Orco Agonist % value Of VUAA1
T5 construct: expressed in transfected cells
T5 sequence (Q7QCC7 1-478): T1 sequence (Q7QCC7 1-478)
Description: as §2

[3] = tested on: An. gambiae early 4th instar larvae; test: Larval mosquito movement assay (Daniovision-Ethovision); type: in vivo, Anopheles gambiae
Protocol: Next, the agonist activity of the VUAA compound class was tested to establish the involvement of AgORs in mediating larval ortho and klinokinesis in response to a series of semiochemicals using larval-stage An. gambiae mosquitoes. Mosquito larvae are aquatic, thus compounds can be delivered to individual early 4th instar larvae regardless of volatility. The assay currently utilizes 6-well plates and the Daniovision-Ethovision platform (Noldus Inc.) to simultaneously record and analyze 6 larvae, thereby providing modest rates of throughput and a high degree of reproducibility. In these assays, larval movements are automatically quantified over 5-minute period and control larvae consistently move the same number of times in the presence or absence of 0.1% DMSO (p=0.80, n=31) (FIGS. 42-43). Furthermore, the effects of the widely-used synthetic insect repellent N, N-diethyl-meta-toluamide (DEET) was tested and DEET was also observed to increase larval movements at and above a threshold concentration of 5×10^−4M (p=0.013, n=27) (FIGS. 42-43).

[4] = Orco + 65, read-out: Orco + 65 Agonist EC50

Cn1c(SCC(=O)Nc2ccc(F)cc2)nnc1-c1cccnc1
Orco 28 + Orco Antagonist % Reduction (Orco 28 + Orco [1]): 11.09%

Cc1cc(C)c(C(=O)CSc2nnc(-c3cccnc3)n2C)c(C)c1
Orco 28 + Orco Antagonist % Reduction (Orco 28 + Orco [1]): 18.21%

COC(=O)c1ccccc1NC(=O)CSc1nnc(-c2cccnc2)n1C
Orco 10 + Orco Potentiator % increase (AgORco+AgOR10; 10 + Orco): 15.15% | Orco 28 + Orco Potentiator % increase (Orco 28 + Orco [1]): 18.02%

Cn1c(SCC(=O)Nc2ccc(Br)cc2)nnc1-c1cccnc1
Orco 28 + Orco Potentiator % increase (Orco 28 + Orco [1]): 11.23%

CCOc1ccccc1-n1c(SCC(=O)c2cccc([N+](=O)[O-])c2)nnc1-c1cccnc1
Orco 10 + Orco Angatonist % Reduction (AgORco+AgOR10; Orco 10 + Orco, antagonist mode): 22.28% | Orco 28 + Orco Antagonist % Reduction (Orco 28 + Orco [2]): 25.53%

O=C(CSc1nnc(-c2cccnc2)n1-c1ccc(Br)cc1)c1c[nH]c2ccccc12
Orco 28 + Orco Potentiator % increase (Orco 28 + Orco [2]; potentiator mode): 19.9%

CCn1c(SCC(=O)Nc2ccc(C(C)C)cc2)nnc1-c1cccnc1 [drawing 381]
EC50 (AgOrco+AgOR65; [4]): 9.6 µM | Orco 10 + Orco Agonist, compared with VUAA1 (AgORco+AgOR10; 10 + Orco, agonist mode, qualitative, relative to VUAA1): >VUAA1 | EC50 (AgORco+AgOR48): 9.9 µM | Orco + 48 Agonist % value Of VUAA1 (AgORco+AgOR48): 109% | Emax (Orco (AgORco)): 102% | EC50 (Orco (AgORco); Orco alone, read-out: Orco Agonist EC50): 12.9 µM

Clc1ccc(-n2c(SC/C=C/c3ccccc3)nnc2-c2cccnc2)cc1
Orco 10 + Orco Potentiator % increase (AgORco+AgOR10; Orco 10 + Orco): 48.08% | Orco 28 + Orco Antagonist % Reduction (Orco 28 + Orco [2]): 20.56%

C=Cc1ccc(NC(=O)CSc2nnc(-c3cccnc3)n2CC)cc1 [VUAA0.5, 2-((4-ethyl-5-(pyridin-3-yl)-4H-1,2,4-triazol-3-yl)thio)-N-(4-vinylphenyl)acetamide]
EC50 (AgOrco+AgOR65; heteromeric OR channels AgOrco+AgOR65, read-out: EC50): 110 µM | larval behavioral (movement) response ([3]; compared with DMSO controls or VUAA1): comparable to DMSO controls

CCN(CC)C(=O)c1cccc(C)c1 [DEET, N, N-diethyl-meta-toluamide, reference compound]
threshold concentration for increased larval movement ([3]; movements over 5-minute period): 500 µM

CCc1ccc(NC(=O)CSc2nnc(-c3cccnc3)n2CC)cc1 [drawing 373]
EC50 (AgOrco+AgOR65; [4]): 47 µM | Orco + 65 Agonist % value Of VUAA1 (AgOrco+AgOR65; Orco + 65, relative to VUAA1): 100% | Orco 10 + Orco Agonist % of control (AgORco+AgOR10; 10 + Orco, agonist mode): 101.8% | EC50 (AgORco+AgOR48): 14 µM | Orco + 48 Agonist % value Of VUAA1 (AgORco+AgOR48): 100% | Emax (Orco (AgORco)): 100%

CCn1c(SCC(=O)NCc2ccco2)nnc1-c1cccnc1
Orco 10 + Orco Potentiator % increase (AgORco+AgOR10; 10 + Orco): 10.23% | Orco 28 + Orco Antagonist % Reduction (Orco 28 + Orco [1]): 10.89%

C=CCn1c(SCc2cc3c(cc2Cl)OCO3)nnc1-c1cccnc1
Orco 28 + Orco Antagonist % Reduction (Orco 28 + Orco [1]): 16.91%
